Where “and” joins values, the source holds several entries; their conditions need not be identical. Equal values may be shown once.
How the values were obtained:
[1] = molecular target: T1, Plasmodium falciparum protein kinase 6 (PK6) (Plasmodium falciparum, UniProt Q8IDW1); experiment: biochemical; conditions: hits below 1 uM; read-out: PK6 IC50
T1 construct: 6-Histidine (N); made in house
T1 sequence (Q8IDW1 1-305): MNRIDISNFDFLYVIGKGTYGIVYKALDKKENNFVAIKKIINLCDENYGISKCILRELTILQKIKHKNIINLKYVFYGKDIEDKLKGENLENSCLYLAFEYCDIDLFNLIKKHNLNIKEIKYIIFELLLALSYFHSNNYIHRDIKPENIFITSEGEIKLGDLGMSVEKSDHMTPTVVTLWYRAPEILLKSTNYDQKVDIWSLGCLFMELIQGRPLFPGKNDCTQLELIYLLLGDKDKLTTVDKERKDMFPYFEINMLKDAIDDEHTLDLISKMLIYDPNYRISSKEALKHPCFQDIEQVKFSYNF

MAP3K11 = MAP3K11 (Homo sapiens, UniProt Q16584); experiment: biochemical
Chain of MAP3K11 (Q16584 whole entry): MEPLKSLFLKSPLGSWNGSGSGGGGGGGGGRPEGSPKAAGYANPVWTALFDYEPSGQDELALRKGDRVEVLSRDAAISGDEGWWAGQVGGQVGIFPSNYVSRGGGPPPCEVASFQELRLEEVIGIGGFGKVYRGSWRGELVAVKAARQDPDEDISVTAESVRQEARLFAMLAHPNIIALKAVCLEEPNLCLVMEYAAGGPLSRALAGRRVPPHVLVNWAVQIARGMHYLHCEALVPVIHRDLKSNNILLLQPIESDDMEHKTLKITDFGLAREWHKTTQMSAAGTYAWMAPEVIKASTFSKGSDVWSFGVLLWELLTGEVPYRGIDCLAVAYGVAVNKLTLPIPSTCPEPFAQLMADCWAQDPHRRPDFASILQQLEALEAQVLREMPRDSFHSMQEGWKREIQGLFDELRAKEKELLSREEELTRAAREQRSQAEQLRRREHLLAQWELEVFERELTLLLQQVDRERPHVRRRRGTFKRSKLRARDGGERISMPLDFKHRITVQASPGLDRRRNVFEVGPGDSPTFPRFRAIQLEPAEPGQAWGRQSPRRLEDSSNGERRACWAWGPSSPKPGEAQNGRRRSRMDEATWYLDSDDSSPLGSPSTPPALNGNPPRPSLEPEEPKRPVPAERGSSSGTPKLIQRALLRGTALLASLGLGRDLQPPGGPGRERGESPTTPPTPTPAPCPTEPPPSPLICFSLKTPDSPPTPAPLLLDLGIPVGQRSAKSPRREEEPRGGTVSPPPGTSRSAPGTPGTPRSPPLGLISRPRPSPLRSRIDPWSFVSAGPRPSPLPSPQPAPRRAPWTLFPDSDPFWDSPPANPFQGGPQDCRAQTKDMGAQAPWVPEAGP

MAP3K3 = molecular target: T2, MAP3K3 (Homo sapiens, UniProt Q99759); experiment: biochemical
T2 sequence (Q99759 1-626): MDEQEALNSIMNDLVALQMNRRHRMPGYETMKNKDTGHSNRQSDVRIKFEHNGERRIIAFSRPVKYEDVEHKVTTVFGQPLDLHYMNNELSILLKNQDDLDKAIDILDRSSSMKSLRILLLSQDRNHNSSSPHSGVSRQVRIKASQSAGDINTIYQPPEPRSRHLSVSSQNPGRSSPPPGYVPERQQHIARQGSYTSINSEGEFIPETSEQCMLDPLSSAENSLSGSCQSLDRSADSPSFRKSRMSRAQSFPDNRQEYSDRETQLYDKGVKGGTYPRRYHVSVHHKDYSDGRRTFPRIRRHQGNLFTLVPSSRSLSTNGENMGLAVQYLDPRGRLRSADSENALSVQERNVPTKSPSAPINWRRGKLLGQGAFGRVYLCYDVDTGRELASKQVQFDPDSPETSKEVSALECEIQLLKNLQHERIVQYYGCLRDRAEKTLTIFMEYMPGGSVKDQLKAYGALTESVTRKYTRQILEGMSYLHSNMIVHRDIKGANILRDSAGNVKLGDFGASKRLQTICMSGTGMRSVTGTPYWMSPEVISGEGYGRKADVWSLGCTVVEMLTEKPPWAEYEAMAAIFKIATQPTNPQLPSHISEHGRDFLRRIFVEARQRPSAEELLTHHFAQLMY

RIOK2 = RIOK2 (Homo sapiens, UniProt Q9BVS4); experiment: biochemical
Chain of RIOK2 (Q9BVS4 whole entry): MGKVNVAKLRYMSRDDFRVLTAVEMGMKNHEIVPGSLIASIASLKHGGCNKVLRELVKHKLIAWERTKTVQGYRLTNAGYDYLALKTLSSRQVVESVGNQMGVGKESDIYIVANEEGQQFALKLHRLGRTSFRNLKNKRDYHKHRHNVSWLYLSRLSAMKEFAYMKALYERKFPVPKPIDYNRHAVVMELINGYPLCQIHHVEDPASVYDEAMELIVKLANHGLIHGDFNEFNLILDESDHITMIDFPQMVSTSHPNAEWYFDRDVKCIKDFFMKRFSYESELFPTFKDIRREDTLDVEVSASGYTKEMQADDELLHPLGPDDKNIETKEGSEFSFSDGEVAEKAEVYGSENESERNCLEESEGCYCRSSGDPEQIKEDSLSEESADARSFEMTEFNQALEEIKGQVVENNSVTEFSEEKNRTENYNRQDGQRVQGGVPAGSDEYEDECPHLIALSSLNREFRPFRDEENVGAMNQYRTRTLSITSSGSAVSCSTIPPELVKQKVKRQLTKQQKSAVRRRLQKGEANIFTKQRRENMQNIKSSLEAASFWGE

SLK = SLK (Homo sapiens, UniProt Q9H2G2); experiment: biochemical; design: endogenous in cells; host or cells: K562 cell extract; species or system K562 (extract); replicate k of n = 2 (each experiment ID is one independent experiment; two experiment IDs per compound); conditions: read-out: KDapp
Chain of SLK (Q9H2G2 whole entry): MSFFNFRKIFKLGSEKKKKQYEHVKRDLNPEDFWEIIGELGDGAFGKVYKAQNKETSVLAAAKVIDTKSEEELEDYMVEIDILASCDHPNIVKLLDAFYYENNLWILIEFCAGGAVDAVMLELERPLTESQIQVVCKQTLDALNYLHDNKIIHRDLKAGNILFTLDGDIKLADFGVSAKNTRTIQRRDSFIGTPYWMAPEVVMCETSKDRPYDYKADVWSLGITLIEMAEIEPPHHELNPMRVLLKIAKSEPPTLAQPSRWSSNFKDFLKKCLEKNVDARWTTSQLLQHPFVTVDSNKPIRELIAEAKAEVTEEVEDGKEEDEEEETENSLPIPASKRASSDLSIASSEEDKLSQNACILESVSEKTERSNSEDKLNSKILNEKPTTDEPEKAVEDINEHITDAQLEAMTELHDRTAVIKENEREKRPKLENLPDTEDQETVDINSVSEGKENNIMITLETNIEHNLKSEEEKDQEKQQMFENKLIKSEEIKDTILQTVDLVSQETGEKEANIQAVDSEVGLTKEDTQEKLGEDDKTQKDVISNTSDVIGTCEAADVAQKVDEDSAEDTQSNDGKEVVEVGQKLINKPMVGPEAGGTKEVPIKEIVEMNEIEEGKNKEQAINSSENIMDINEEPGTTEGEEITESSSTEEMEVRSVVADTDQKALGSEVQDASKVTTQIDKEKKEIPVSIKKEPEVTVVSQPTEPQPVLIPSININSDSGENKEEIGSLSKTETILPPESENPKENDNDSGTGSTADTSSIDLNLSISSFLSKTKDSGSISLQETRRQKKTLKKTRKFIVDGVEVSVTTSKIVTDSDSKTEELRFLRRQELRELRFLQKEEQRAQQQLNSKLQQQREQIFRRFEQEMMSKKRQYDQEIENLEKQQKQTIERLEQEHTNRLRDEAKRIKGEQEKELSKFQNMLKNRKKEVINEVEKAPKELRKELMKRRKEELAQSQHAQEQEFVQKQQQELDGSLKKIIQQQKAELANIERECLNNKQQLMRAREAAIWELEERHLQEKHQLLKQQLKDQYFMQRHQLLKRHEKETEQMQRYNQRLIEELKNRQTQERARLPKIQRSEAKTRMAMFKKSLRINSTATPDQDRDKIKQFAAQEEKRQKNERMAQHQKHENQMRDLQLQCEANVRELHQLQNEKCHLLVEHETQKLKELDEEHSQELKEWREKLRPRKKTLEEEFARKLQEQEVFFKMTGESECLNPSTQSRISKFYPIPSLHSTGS

[2] = molecular target: T3, Plasmodium falciparum calcium-dependent protein kinase 1 (CDPK1) (Plasmodium falciparum, UniProt P62344); experiment: CDPK1 Kinase-Glo ATP-consumption screen and dose-response; assay type: biochemical; conditions: hits below 1 uM; read-out: CDPK1 IC50
T3 construct: 6-Histidine (N); made in house
T3 sequence (P62344 whole entry): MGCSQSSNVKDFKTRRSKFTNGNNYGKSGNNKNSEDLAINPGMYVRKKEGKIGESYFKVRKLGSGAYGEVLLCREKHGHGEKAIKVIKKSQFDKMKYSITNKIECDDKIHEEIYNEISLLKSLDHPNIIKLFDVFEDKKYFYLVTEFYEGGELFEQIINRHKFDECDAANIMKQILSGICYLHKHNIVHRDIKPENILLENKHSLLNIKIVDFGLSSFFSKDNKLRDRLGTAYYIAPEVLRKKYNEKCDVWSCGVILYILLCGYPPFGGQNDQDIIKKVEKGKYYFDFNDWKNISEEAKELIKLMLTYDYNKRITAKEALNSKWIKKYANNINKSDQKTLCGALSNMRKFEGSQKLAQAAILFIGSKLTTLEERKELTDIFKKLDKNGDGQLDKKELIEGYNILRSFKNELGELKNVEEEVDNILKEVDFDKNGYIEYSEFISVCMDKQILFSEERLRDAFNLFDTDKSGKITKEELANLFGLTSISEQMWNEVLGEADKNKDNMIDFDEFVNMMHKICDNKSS
How it was run: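 Single-point testing used 1 μM final compound, then dose-response, against CDPK4 and CDPK1 with Syntide-2 (40 μM) as substrate. After 90 min, reactions were halted by 5 mM EGTA, and kinase activity was inferred from depleted ATP via Kinase-Glo luminescence.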

PRKCQ = PRKCQ (Homo sapiens, UniProt Q04759); experiment: biochemical; design: endogenous in cells; host or cells: K562 cell extract; species or system K562 (extract); replicate k of n = 2 (each experiment ID is one independent experiment; two experiment IDs per compound); conditions: read-out: KDapp
Chain of PRKCQ (Q04759 whole entry): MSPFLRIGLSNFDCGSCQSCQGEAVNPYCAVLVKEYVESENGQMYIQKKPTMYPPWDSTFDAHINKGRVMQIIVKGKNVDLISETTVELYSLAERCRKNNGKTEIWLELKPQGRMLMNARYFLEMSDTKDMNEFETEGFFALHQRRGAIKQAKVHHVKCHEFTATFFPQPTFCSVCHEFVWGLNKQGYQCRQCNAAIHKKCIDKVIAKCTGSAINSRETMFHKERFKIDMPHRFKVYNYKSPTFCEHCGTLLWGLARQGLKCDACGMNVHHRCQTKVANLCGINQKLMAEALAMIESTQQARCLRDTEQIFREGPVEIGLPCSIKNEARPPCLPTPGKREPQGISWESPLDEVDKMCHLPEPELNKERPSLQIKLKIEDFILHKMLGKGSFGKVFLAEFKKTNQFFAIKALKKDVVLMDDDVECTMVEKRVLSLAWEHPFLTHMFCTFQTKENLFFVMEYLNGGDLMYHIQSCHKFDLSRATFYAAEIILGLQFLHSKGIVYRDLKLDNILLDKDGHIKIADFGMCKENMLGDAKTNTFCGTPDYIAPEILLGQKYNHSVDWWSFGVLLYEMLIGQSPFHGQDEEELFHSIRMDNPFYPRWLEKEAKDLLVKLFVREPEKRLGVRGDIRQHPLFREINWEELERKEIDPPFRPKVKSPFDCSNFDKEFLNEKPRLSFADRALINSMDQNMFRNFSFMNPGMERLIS

SIK2 = SIK2 (Homo sapiens, UniProt Q9H0K1); experiment: biochemical; design: endogenous in cells; host or cells: K562 cell extract; species or system K562 (extract); replicate k of n = 2 (each experiment ID is one independent experiment; two experiment IDs per compound); conditions: read-out: KDapp
Chain of SIK2 (Q9H0K1 whole entry): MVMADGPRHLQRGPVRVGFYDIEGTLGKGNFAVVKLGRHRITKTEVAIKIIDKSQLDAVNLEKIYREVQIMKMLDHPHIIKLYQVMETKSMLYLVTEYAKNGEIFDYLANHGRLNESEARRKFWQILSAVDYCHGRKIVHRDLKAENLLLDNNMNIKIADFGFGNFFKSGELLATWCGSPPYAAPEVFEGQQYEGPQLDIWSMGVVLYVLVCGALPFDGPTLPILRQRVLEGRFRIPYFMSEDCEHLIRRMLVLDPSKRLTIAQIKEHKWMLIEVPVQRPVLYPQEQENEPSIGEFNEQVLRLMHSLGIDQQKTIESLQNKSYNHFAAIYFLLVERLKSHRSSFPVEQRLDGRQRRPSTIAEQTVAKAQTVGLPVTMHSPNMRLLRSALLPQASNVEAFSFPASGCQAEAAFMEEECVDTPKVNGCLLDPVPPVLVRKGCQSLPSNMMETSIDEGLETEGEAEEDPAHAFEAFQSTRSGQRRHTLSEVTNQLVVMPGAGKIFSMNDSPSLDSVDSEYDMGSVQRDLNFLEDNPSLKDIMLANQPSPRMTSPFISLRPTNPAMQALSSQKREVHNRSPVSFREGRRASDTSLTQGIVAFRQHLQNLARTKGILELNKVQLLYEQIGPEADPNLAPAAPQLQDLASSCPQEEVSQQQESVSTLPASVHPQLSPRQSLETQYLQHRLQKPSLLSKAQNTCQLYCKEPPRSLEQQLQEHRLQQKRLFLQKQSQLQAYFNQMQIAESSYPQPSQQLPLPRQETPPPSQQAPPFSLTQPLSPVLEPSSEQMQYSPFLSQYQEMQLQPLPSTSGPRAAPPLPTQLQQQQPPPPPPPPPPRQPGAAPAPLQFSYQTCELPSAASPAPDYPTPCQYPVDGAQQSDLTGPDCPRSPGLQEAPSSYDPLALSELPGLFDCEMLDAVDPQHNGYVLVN

Row | Structure (SMILES) | IC50 [1] | IC50 (MAP3K11) | IC50 (MAP3K3) | IC50 (RIOK2) | Kd (SLK) | IC50 [2] | Kd (PRKCQ) | Kd (SIK2)
1 | CN(C)CC(O)COc1ccc(Nc2ncc([N+](=O)[O-])c(Nc3ccccc3O)n2)cc1.O=C(O)C(F)(F)F (stereo not shown) [TCMDC-141399] | 67 nM | 1400 nM and 630 nM | 6000 nM and > 20000 nM | > 20000 nM | 528 nM and 593 nM | – | – | –
2 | Cl.NCC1(c2nc(-c3ccc(Cl)c(O)c3)c(-c3ccncc3)[nH]2)CCCCC1 [TCMDC-141154] | – | – | – | > 20000 nM | – | 14 nM | 786 nM and 1000 nM | 173 nM and 161 nM
3 | CN1CCN(c2ccc(Nc3ncc(C#N)c(Nc4ccccc4C(N)=O)n3)cc2)CC1.Cl [TCMDC-134116] | 89 nM | 89 nM | 310 nM | – | 28.5 nM and 33.8 nM | 12 nM | 858 nM and 650 nM | 10.6 nM
